Reference: patent publication US20230131899A1, “INHIBITORS OF MICROBIALLY INDUCED AMYLOID” (Axial Therapeutics, Inc., priority 2020, published 2023)
Where two headings read alike, the source gives them in different places.

Key:
[1] = target: T1, E. coli CsgA (Escherichia coli, UniProt P28307); test: In vitro ThioflavinT assay of CsgA aggregation (CsgA ThT Assay); assay type: biochemical; conditions: for remaining activity at 25 µM: compound 25 μM; for remaining activity at 100 µM: compound 100 μM
T1 construct: made in house; host or cells: E. coli NEB 3016 slyD::kan, pET11d
T1 sequence (P28307 23-151): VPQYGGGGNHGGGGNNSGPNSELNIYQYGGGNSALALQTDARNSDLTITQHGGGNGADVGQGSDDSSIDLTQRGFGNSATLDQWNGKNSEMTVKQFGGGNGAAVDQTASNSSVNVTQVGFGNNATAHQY
Procedure, shortened: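 Purified C-terminal His-tagged CsgA, monomerised by desalting and 30-kDa filtration, at 2-20 μM with 20-40 μM ThT in 50 mM potassium phosphate pH 7.3, 1% DMSO, compounds 3.125-200 uM; room temperature, fluorescence (ex 438/em 495 nm) read every 15 min. Background-subtracted signal expressed as percent inhibition versus vehicle at 6-6.5 or 8-9 h, or as percent control AUC.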

[2] = system: CsgA gene expression (csgBAC promoter-GFP reporter) in E. coli UTI89; test: In vitro live cell fluorescent reporter assay of CsgA transcription (Reporter Assay); assay type: cell-based; conditions: Escherichia coli
Procedure, shortened: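 Compounds at 0.14–100 μM (1% DMSO final) incubated 20 h at 27 °C in YESCA broth with UTI89 carrying a single-copy GFP reporter under the csgBAC intergenic promoter region, inoculum OD600 0.003. Fluorescence normalized to vehicle wells gave IC50 and 50%-of-vehicle concentration; OD600 reduction >10% flagged growth impact.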

[3] = read-out: CsgA ThT Assay (10 μM CsgA) % Control AUC at 1005 minutes, 25 μM (activity range), CsgA 10 μM, black plates, 1005 minutes, class symbol
[4] = read-out: CsgA ThT Assay (10 μM CsgA) % Control AUC at 1005 minutes, 25 μM, mean AUC as % of DMSO control, CsgA 10 μM, black plates, 1005 minutes
[5] = read-out: CsgA ThT Assay (10 μM CsgA) % Control AUC at 1005 minutes, 100 μM (activity range), CsgA 10 μM, black plates, 1005 minutes, class symbol
[6] = read-out: CsgA ThT Assay (10 μM CsgA) % Control AUC at 1005 minutes, 100 μM, mean AUC as % of DMSO control, CsgA 10 μM, black plates, 1005 minutes
[7] = read-out: Reporter Assay Abs IC50 (activity range), median Abs IC50 in the CsgA reporter assay, class symbol
[8] = read-out: Reporter Assay Abs IC50 (μM), median Abs IC50 in the CsgA reporter assay, N/A = maximum expression reduction is <50% of control
[9] = read-out: CsgA ThT Assay (2 μM CsgA) % Control Bmax 25 μM, activity range, class symbol, CsgA 2 μM, white plates
[10] = read-out: CsgA ThT Assay (2 μM CsgA) % Control Bmax 25 μM, mean Bmax as percentage of DMSO control, CsgA 2 μM, white plates
[11] = read-out: CsgA ThT Assay (2 μM CsgA) % Control Bmax 100 μM, activity range, class symbol, CsgA 2 μM, white plates
[12] = read-out: CsgA ThT Assay (2 μM CsgA) % Control Bmax 100 μM, mean Bmax as percentage of DMSO control, CsgA 2 μM, white plates
[13] = read-out: Reporter Assay Abs IC50, activity range, class symbol

CCCN1CC(C(=O)O)n2c(c(-c3cccc(C(F)(F)F)c3)c(Cc3cccc4ccccc34)c(C(C)C)c2=O)S1(=O)=O (stereo not drawn) [Compound 125, 7-isopropyl-8-(naphthalen-1-ylmethyl)-6-oxo-2-propyl-9-(3-(trifluoromethyl)phenyl)-3,4-dihydro-2H,6H-pyrido[1,2-e][1,2,5]thiadiazine-4-carboxylic acid 1,1-dioxide]
remaining activity at 25 µM [1, 3]: 11 to 31% | remaining activity at 25 µM [1, 4]: 25% | remaining activity at 100 µM [1, 5]: 31 to 60% | remaining activity at 100 µM [1, 6]: 44% | IC50 [2, 7]: 1.3 to 4.5 µM | IC50 [2, 8]: 2.7 µM

CCCN1CC(C(=O)O)n2c(c(-c3cccc(C(F)(F)F)c3)c(Cc3cccc4ccccc34)c(NCC3CCCC3)c2=O)S1(=O)=O (stereo not drawn) [Compound 128, 7-((cyclopentylmethyl)amino)-8-(naphthalen-1-ylmethyl)-6-oxo-2-propyl-9-(3-(trifluoromethyl)phenyl)-3,4-dihydro-2H,6H-pyrido[1,2-e][1,2,5]thiadiazine-4-carboxylic acid 1,1-dioxide]
remaining activity at 25 µM [1, 3]: 11 to 31% | remaining activity at 25 µM [1, 4]: 29% | remaining activity at 100 µM [1, 5]: 11 to 31% | remaining activity at 100 µM [1, 6]: 28% | IC50 [2, 7]: 1.3 to 4.5 µM | IC50 [2, 8]: 2.2 µM

O=C(O)CC1CSc2c(-c3cccc(C(F)(F)F)c3)c(Cc3cccc4ccccc34)cc(=O)n21 (stereo not drawn) [Compound 129, 2-(7-(naphthalen-1-ylmethyl)-5-oxo-8-(3-(trifluoromethyl)phenyl)-2,3-dihydro-5H-thiazolo[3,2-a]pyridin-3-yl)acetic acid]
remaining activity at 25 µM [1, 3]: 11 to 31% | remaining activity at 25 µM [1, 4]: 28% | remaining activity at 100 µM [1, 5]: > 60% | remaining activity at 100 µM [1, 6]: 61% | IC50 [2, 7]: 1.3 to 4.5 µM | IC50 [2, 8]: 3.4 µM

O=C(O)CC1CS(=O)(=O)c2c(-c3cccc(C(F)(F)F)c3)c(Cc3cccc4ccccc34)cc(=O)n21 (stereo not drawn) [Compound 130, 2-(7-(naphthalen-1-ylmethyl)-1,1-dioxido-5-oxo-8-(3-(trifluoromethyl)phenyl)-2,3-dihydro-5H-thiazolo[3,2-a]pyridin-3-yl)acetic acid]
remaining activity at 25 µM [1, 3]: 31 to 60% | remaining activity at 25 µM [1, 4]: 49% | remaining activity at 100 µM [1, 5]: 11 to 31% | remaining activity at 100 µM [1, 6]: 15% | IC50 [2, 7]: > 10 µM | IC50 [2, 8]: 14.8 µM

O=C(O)C1CN(C2CCCCC2)S(=O)(=O)c2c(-c3cccc(C(F)(F)F)c3)c(Cc3cccc4ccccc34)c(NC3CCCC3)c(=O)n21 (stereo not drawn) [Compound 131, 2-cyclohexyl-7-(cyclopentylamino)-8-(naphthalen-1-ylmethyl)-6-oxo-9-(3-(trifluoromethyl)phenyl)-3,4-dihydro-2H,6H-pyrido[1,2-e][1,2,5]thiadiazine-4-carboxylic acid 1,1-dioxide]
remaining activity at 25 µM [1, 9]: 31 to 60% | remaining activity at 25 µM [1, 10]: 53% | remaining activity at 100 µM [1, 11]: > 60% | remaining activity at 100 µM [1, 12]: 94% | IC50 [2, 8]: 0.9 µM | IC50 [2, 13]: < 1.3 µM

CCCN1CC(C(=O)O)n2c(c(-c3cccc(C(F)(F)F)c3)c(Cc3cccc4ccccc34)c(C3CC3)c2=O)S1(=O)=O (stereo not drawn) [Compound 132, 7-cyclopropyl-8-(naphthalen-1-ylmethyl)-6-oxo-2-propyl-9-(3-(trifluoromethyl)phenyl)-3,4-dihydro-2H,6H-pyrido[1,2-e][1,2,5]thiadiazine-4-carboxylic acid 1,1-dioxide]
remaining activity at 25 µM [1, 9]: > 60% | remaining activity at 25 µM [1, 10]: 76% | remaining activity at 100 µM [1, 11]: > 60% | remaining activity at 100 µM [1, 12]: 122% | IC50 [2, 8]: 2.4 µM | IC50 [2, 13]: 1.3 to 4.5 µM

O=C(O)C1CNc2c(-c3cccc(C(F)(F)F)c3)c(Cc3cccc4ccccc34)c(Br)c(=O)n21 (stereo not drawn) [Compound 133, 6-bromo-7-(naphthalen-1-ylmethyl)-5-oxo-8-(3-(trifluoromethyl)phenyl)-1,2,3,5-tetrahydroimidazo[1,2-a]pyridine-3-carboxylic acid]
remaining activity at 25 µM [1, 9]: > 60% | remaining activity at 25 µM [1, 10]: 71% | remaining activity at 100 µM [1, 11]: 31 to 60% | remaining activity at 100 µM [1, 12]: 36% | IC50 [2, 8]: 3.7 µM | IC50 [2, 13]: 1.3 to 4.5 µM
